# According to article PMC10804683, “Identification of the pyridoxal 5′‐phosphate allosteric site in human pyridox(am)ine 5′‐phosphate oxidase” (Protein Science : A Publication of the Protein Society, 2024):
# Where a chain is given by its changes, count along the chain named. “Also recorded” adds a separate entry of the source.
# Assays:
# apo-PNPO F48A/E50L/R258L = biological target: T1, apo-PNPO F48A/E50L/R258L (Homo sapiens, UniProt Q9NVS9, E50L/F48A/R258L); test: PLP binding by intrinsic fluorescence, apo triple variant; details: excitation 280 nm, 100 nM enzyme
# T1 construct: a main form corresponding to the entire protein; made in house; host or cells: E. coli BL21(DE3)
# T1 sequence (Q9NVS9 1-261 F48A/E50L/R258L): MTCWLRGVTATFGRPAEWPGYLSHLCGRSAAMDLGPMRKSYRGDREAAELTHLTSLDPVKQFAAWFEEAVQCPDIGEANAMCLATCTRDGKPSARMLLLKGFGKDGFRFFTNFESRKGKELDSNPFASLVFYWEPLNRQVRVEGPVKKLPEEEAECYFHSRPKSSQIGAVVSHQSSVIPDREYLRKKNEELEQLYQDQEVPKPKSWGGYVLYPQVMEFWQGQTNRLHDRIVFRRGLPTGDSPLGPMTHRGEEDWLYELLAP
# Text: (§1) PLP binding to PNPO can be detected and quantitatively measured using differential scanning fluorimetry (DSF) and also by measuring FMN fluorescence changes. We had previously attributed DSF changes to PLP binding at the active site, while FMN fluorescence changes were attributed to PLP binding at the allosteric site (Barile et al., [2019], [2020]). Previous experiments carried out with the PNPO R161C variant, affecting a residue that is essential for substrate binding and catalysis (and therefore also for PLP binding at the active site), confirms that DSF measurements only report PLP binding at the active site (Barile et al., [2021]; Table 1). […] We expected to observe no FMN fluorescence changes upon titration of the variants with PLP. However, this was not the case, and the dissociation constant values obtained by observing the FMN fluorescence emission were only up to threefold larger in the variants with respect to wild type PNPO (Figure 3). […] To check the second possibility, we measured intrinsic fluorescence changes of wild type and variant apo‐forms (i.e., without FMN) upon PLP titration. […]
# (§2) Analyses of PLP binding, based on FMN fluorescence increase observed upon binding of PLP to PNPO, were performed as described in Barile et al. ([2020]). […] Emission spectra were recorded from […], with excitation and emission slits set at 3 and 5 nm, respectively. […]
# [1] = biological target: T2, human PNPO F48A/E50L/R161C/R258L variant (holo-enzyme) (Homo sapiens, UniProt Q9NVS9, E50L/F48A/R161C/R258L); test: PLP binding by fluorescence, F48A/E50L/R161C/R258L (35% FMN-saturated); details: text: titrated by exciting at 280 nm
# T2 construct: a main form corresponding to the entire protein; made in house; host or cells: E. coli BL21(DE3)
# T2 sequence (Q9NVS9 1-261 F48A/E50L/R161C/R258L): T1 sequence (Q9NVS9 1-261 F48A/E50L/R258L) with R161C
# Text: as §1, §2
# human PNPO R161C variant = biological target: human PNPO R161C variant; set-up: method as in Barile et al., [2021]; details: previous experiments, ref Barile et al., [2021]; cited from earlier work
smiles,measurement,setting,value
"Cc1ncc(COP(=O)(O)O)c(C=O)c1O [PLP, pyridoxal 5′‐phosphate]",Apo-enzyme PLP binding KD^FLUO,apo-PNPO F48A/E50L/R258L,no change in fluorescence was observed; also recorded: No binding
same,PLP binding KD^FLUO,[1],no variation in the emitted fluorescence was observed; also recorded: No binding
same,PLP binding KD^DSF,human PNPO R161C variant,No binding
